Counter-ions that a name gives are not always drawn.
Columns and labels:
[1] = target: MNK2 (Homo sapiens (Human), UniProt Q9HBH9); experiment: In vitro MNK kinase assay (Caliper LabChip mobility shift); type: biochemical; details: enzymatic, 250 μM ATP; read-out: IC50 Mnk2
[2] = target: MNK1 (Homo sapiens, UniProt Q9BUB5); experiment: as above; type: biochemical; details: enzymatic, 1.2 mM ATP; read-out: IC50 Mnk1

Chain of MNK2 (Q9HBH9 84-388): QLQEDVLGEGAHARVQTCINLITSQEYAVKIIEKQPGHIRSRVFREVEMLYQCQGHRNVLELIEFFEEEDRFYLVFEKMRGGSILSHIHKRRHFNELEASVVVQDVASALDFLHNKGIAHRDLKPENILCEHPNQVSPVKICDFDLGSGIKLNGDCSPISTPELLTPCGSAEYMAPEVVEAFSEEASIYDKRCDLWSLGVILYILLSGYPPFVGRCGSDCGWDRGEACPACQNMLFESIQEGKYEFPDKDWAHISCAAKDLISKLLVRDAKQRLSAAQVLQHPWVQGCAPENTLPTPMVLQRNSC

Compound | IC50 [1] [µM] | IC50 [2] [µM]
CC1(C)CCN(C(=O)c2ccc(-c3cn4c(-c5ccc(C(N)=O)cc5)cnc4cn3)cc2)CC1 [Example 3, 4-(6-(4-(4,4-dimethylpiperidine-1-carbonyl)phenyl)imidazo[1,2-a]pyrazin-3-yl)benzamide] | < 0.1 | < 1
NC(=O)c1ccc(-c2cnc3cnc(-c4ccc(C(=O)N5CCC(N)CC5)cc4)cn23)cc1 [Example 4, 4-(6-(4-(4-aminopiperidine-1-carbonyl)phenyl)imidazo[1,2-a]pyrazin-3-yl)benzamide hydrochloride] | < 0.1 | < 0.1
CC(C)(C)N1CCN(C(=O)c2ccc(-c3cn4c(-c5ccc(C(N)=O)cc5)cnc4cn3)cc2)CC1 [Example 5, 4-(6-(4-(4-tert-butylpiperazine-1-carbonyl)phenyl)imidazo[1,2-a]pyrazin-3-yl)benzamide] | < 0.1 | < 0.1
N#Cc1ccc(-c2cnc3cnc(-c4ccc(C(=O)N5CCOCC5)cc4)cn23)cc1 [Example 7, 4-(6-(4-(morpholine-4-carbonyl)phenyl)imidazo[1,2-a]pyrazin-3-yl)benzonitrile] | < 1 | < 1
CNC1CCN(C(=O)c2ccc(-c3cn4c(-c5ccc(C#N)cc5)cnc4cn3)cc2)CC1 [Example 9, 4-(6-(4-(4-(methylamino)piperidine-1-carbonyl)phenyl)imidazo[1,2-a]pyrazin-3-yl)benzonitrile] | < 1 | < 1
N#Cc1ccc(-c2cnc3cnc(-c4ccc(C(=O)N5CCN(C6CC6)CC5)cc4)cn23)cc1 [Example 14, 4-(6-(4-(4-cyclopropylpiperazine-1-carbonyl)phenyl)imidazo[1,2-a]pyrazin-3-yl)benzonitrile] | < 1 | < 1
N#Cc1ccc(-c2cnc3cnc(-c4ccc(C(=O)N5CCC(O)CC5)cc4)cn23)cc1 [Example 15, 4-(6-(4-(4-hydroxypiperidine-1-carbonyl)phenyl)imidazo[1,2-a]pyrazin-3-yl)benzonitrile] | < 1 | < 1
CN1CCCN(C(=O)c2ccc(-c3cn4c(-c5ccc(C#N)cc5)cnc4cn3)cc2)CC1 [Example 17, 4-(6-(4-(4-methyl-1,4-diazepane-1-carbonyl)phenyl)imidazo[1,2-a]pyrazin-3-yl)benzonitrile] | < 1 | < 1
CN(C)C1CCN(C(=O)c2ccc(-c3cn4c(-c5ccc(C#N)cc5)cnc4cn3)cc2)CC1 [Example 21, 4-(6-(4-(4-(dimethylamino)piperidine-1-carbonyl)phenyl)imidazo[1,2-a]pyrazin-3-yl)benzonitrile] | < 1 | < 1
CC1(N)CCN(C(=O)c2ccc(-c3cn4c(-c5ccc(C#N)cc5)cnc4cn3)cc2)CC1 [Example 23, 4-(6-(4-(4-amino-4-methylpiperidine-1-carbonyl)phenyl)imidazo[1,2-a]pyrazin-3-yl)benzonitrile Hydrochloride Salt] | < 0.1 | < 1
N#Cc1ccc(-c2cnc3cnc(-c4ccc(C(=O)N5CCC6(CC5)COC6)cc4)cn23)cc1 [Example 24, 4-(6-(4-(2-oxa-7-azaspiro[3.5]nonane-7-carbonyl)phenyl)imidazo[1,2-a]pyrazin-3-yl)benzonitrile] | < 1 | < 1
CC(C)(C)N1CCN(C(=O)c2ccc(-c3cn4c(-c5ccc(C#N)cc5)cnc4cn3)cc2)CC1 [Example 26, 4-(6-(4-(4-tert-butylpiperazine-1-carbonyl)phenyl)imidazo[1,2-a]pyrazin-3-yl)benzonitrile] | < 1 | < 1
Cc1cc(-c2cn3c(-c4ccc(C#N)cc4)cnc3cn2)ccc1C(=O)N1CCC(C)(N)CC1 [Example 28, 4-(6-(4-(4-amino-4-methylpiperidine-1-carbonyl)-3-methylphenyl)imidazo[1,2-a]pyrazin-3-yl)benzonitrile] | < 0.1 | < 0.1
N#Cc1ccc(-c2cnc3cnc(-c4ccc(C(=O)N5CCC(N)CC5)c(F)c4)cn23)cc1 [Example 29, 4-(6-(4-(4-aminopiperidine-1-carbonyl)-3-fluorophenyl)imidazo[1,2-a]pyrazin-3-yl)benzonitrile] | < 1 | < 1
CC1(N)CCN(C(=O)c2ccc(-c3cn4c(-c5ccc(C#N)cc5)cnc4cn3)cc2F)CC1 [Example 30, 4-(6-(4-(4-amino-4-methylpiperidine-1-carbonyl)-3-fluorophenyl)imidazo[1,2-a]pyrazin-3-yl)benzonitrile] | < 1 | < 1
N#Cc1ccc(-c2cnc3cnc(-c4ccc(C(=O)N5CCC(N)CC5)c(Cl)c4)cn23)cc1 [Example 31, 4-(6-(4-(4-aminopiperidine-1-carbonyl)-3-chlorophenyl)imidazo[1,2-a]pyrazin-3-yl)benzonitrile] | < 1 | < 1
CC1(N)CCN(C(=O)c2ccc(-c3cn4c(-c5ccc(C#N)cc5)cnc4cn3)cc2Cl)CC1 [Example 32, 4-(6-(4-(4-amino-4-methylpiperidine-1-carbonyl)-3-chlorophenyl)imidazo[1,2-a]pyrazin-3-yl)benzonitrile] | < 1 | < 0.1
CN1CCN(C(=O)c2ccc(-c3cn4c(-c5ccc(C#N)cc5)cnc4cn3)c(O)c2)CC1 [Example 38, 4-(6-(2-hydroxy-4-(4-methylpiperazine-1-carbonyl)phenyl)imidazo[1,2-a]pyrazin-3-yl)benzonitrile] | < 1 | < 1
COc1cc(-c2cn3c(-c4ccc(C#N)cc4)cnc3cn2)ccc1C(=O)N1CCN(C)CC1 [Example 39, 4-(6-(3-methoxy-4-(4-methylpiperazine-1-carbonyl)phenyl)imidazo[1,2-a]pyrazin-3-yl)benzonitrile] | < 1 | < 1
CN1CCN(C(=O)c2ccc(-c3cn4c(-c5ccc(Cl)cc5)cnc4cn3)cc2)CC1 [Example 41, (4-(3-(4-chlorophenyl)imidazo[1,2-a]pyrazin-6-yl)phenyl)(4-methylpiperazin-1-yl)methanone] | < 1 | < 1
NC(=O)c1ccc(-c2cn3c(-c4ccc(Cl)cc4)cnc3cn2)cc1 [Example 42, 4-(3-(4-chlorophenyl)imidazo[1,2-a]pyrazin-6-yl)benzamide] | < 1 | < 1
O=C1CCN(C(=O)c2ccc(-c3cn4c(-c5ccc(Cl)cc5)cnc4cn3)cc2)CC1 [Example 43, 1-(4-(3-(4-chlorophenyl)imidazo[1,2-a]pyrazin-6-yl)benzoyl)piperidin-4-one] | < 1 | < 1
CCN1CCN(C(=O)c2ccc(-c3cn4c(-c5ccc(Cl)cc5)cnc4cn3)cc2)CC1 [Example 45, (4-(3-(4-chlorophenyl)imidazo[1,2-a]pyrazin-6-yl)phenyl)(4-ethylpiperazin-1-yl)methanone] | < 1 | < 1
O=C(c1ccc(-c2cn3c(-c4ccc(Cl)cc4)cnc3cn2)cc1)N1CCC(NC(=O)C(F)(F)F)CC1 [Example 48, N-(1-(4-(3-(4-chlorophenyl)imidazo[1,2-a]pyrazin-6-yl)benzoyl)piperidin-4-yl)-2,2,2-trifluoroacetamide] | – | < 1
CN1CCN(C(=O)c2ccc(-c3ccc4ncc(-c5ccc(O)cc5)n4c3)cc2)CC1 [Example 175, (4-(3-(4-hydroxyphenyl)imidazo[1,2-a]pyridin-6-yl)phenyl)(4-methylpiperazin-1-yl)methanone] | < 0.1 | –

Reference: US9908886B2 (Agency for Science, Technology and Research, priority 2012, dated 2018)
